The values that follow come from patent EP1480941B1, “UREA DERIVATIVES AS HIV ASPARTYL PROTEASE INHIBITORS” (priority 2002, dated 2003).

By Ki is commonly meant the dissociation constant of the complex between target and ligand, obtained from inhibition or displacement.

Where two headings read alike, the source gives them in different places.

In the test the target is HIV protease (Human immunodeficiency virus type 1 group M subtype B, UniProt P04585). Put plainly: Enzymatic (fluorometric FRET) assay for determining the inhibition constant (Ki). The format is biochemical. Conditions: EDANS/DABCYL substrate, equation of Henderson. An excerpt:
Enzymatic assay for determining the inhibition constant (Ki) of synthetic compounds targeting the HIV protease
This is a fluorometric assay based on the cleavage by protease of a substrate carrying a donor group (EDANS) and an acceptor group (DABCYL) on each side of the cleavage site, interacting together through fluorescence resonance energy transfer (FRET) as described by Matayoshi et al. (Science 247:[…], 1990).
After calculation of Vo and Vi, the inhibition constant (Ki) of the compound is determined using the equation of Henderson: (Vo)/(Vi) = 1 + ([I])/(Kiapp) Where Ki = (Kiapp)/((1 + [S])/(Km)) [formula] where Vo = the enzyme's initial velocity Vi = the enzyme velocity in the presence of the inhibitory compound, [I] = inhibitor concentration, [S] = substrate concentration, Km = Michaelis-Menten constant and Kiapp = apparent Ki
Graphs are traced and the Ki determined using GraphPad Prism software v. 3.0.

`Cc1ccc(S(=O)(=O)N(CC(C)C)[C@@H](CCCCNC(=O)N[C@H](Cc2ccccc2)C(N)=O)C(=O)O)cc1` [Example 9, Nα-isobutyl-Nα-(4-methylbenzenesulfonyl)-N∈-[D-phenylalanylamide-N'α-carbonyl]-L-lysine]: where the note is “Ki”, the Ki amounted to 131 nM.
On to `Cc1ccc(S(=O)(=O)N(CC(C)C)[C@@H](CCCCNC(=O)N(CC(C)C)C2CCCCC2)C(=O)O)cc1` [Example 7, Nα-isobutyl-Nα-(4-methylbenzenesulfonyl)-N∈-[(N'-cyclohexyl-N'-isobutyl)aminocarbonyl]-L-lysine], for which the Ki (read-out: Ki) was more than 300 nM.
`COc1ccc(CN(Cc2ccc3c(c2)OCO3)C(=S)NCCCC[C@@H](CO)N(CCC(C)C)S(=O)(=O)c2ccc(N)cc2)cc1` [Example 109, (2S) 2-N-(4-aminobenzenesulfonyl)-2-N-(3-methylbutyl)-6-N-[N'-(4-methoxybenzyl)-N'-piperonylaminothiocarbonyl]-2,6-diaminohexanol] showed a Ki (Ki) of 3.6 nM.
For `Cc1ccc(S(=O)(=O)N(CC(C)C)[C@@H](CCCCNC(=O)N(Cc2ccccc2)Cc2cccc(N)c2)C(=O)O)cc1` [Example 58, Nα-isobutyl-Nα-(4-methylbenzenesulfonyl)-N∈-[N'-(3-aminobenzyl)-N'-benzylaminocarbonyl]-L-lysine], the Ki (read-out: Ki) was more than 300 nM.
Regarding `Cc1ccc(S(=O)(=O)N(CC(C)C)[C@@H](CCCCNC(=O)N(CC(C)C)CC(C)C)C(=O)O)cc1` [Example 35, Nα-isobutyl-Nα-(4-methylbenzenesulfonyl)-N∈-(N',N'-diisobutylaminocarbonyl)-L-lysine], the Ki (read-out: Ki) was more than 300 nM.
`CC(C)CCN([C@H](CO)CCCCNC(=O)N(Cc1ccc(F)cc1)Cc1ccc2c(c1)OCCO2)S(=O)(=O)c1ccc(N)cc1` [Example 103, (2S) 2-N-(4-aminobenzenesulfonyl)-2-N-(3-methylbutyl)-6-N-[N'-(4-fluorobenzyl)-N'-(3,4-ethylenedioxy)benzylaminocarbonyl]-2,6-diaminohexanol] had a Ki (Ki) of 5.4 nM.
`Cc1ccc(S(=O)(=O)N(CC(C)C)[C@H](CCCCNC(=O)N[C@@H]2CCc3ccccc32)C(=O)O)cc1` [Example 27, (1R,1'R) Nα-isobutyl-Nα-(4-methylbenzenesulfonyl)-N∈-(indanyl-1'-aminocarbonyl)-R-lysine] had a Ki of more than 300 nM.
On the same count and under the same terms, under `CCC(C)CN([C@H](CO)CCCCNC(=O)N(Cc1ccccc1)Cc1ccc2c(c1)OCO2)S(=O)(=O)c1ccc(N)cc1` (stereo partly drawn) [Example 98, (2S) 2-N-(4-aminobenzenesulfonyl)-2-N-(2-methylbutyl)-6-N-[N'-benzyl-N'-piperonylaminocarbonyl]-2,6-diaminohexanol] stands 13 nM.
On to `COc1cc(CNC(=O)NCCCC[C@@H](CO)N(CC(C)C)S(=O)(=O)c2ccc(N)cc2)cc(OC)c1` [Example 80, (2S) 2-N-(4-aminobenzenesulfonyl)-2-N-isobutyl-6-N-(N'-3,5-dimethoxybenzylaminocarbonyl)-2,6-diaminohexanol], for which, under “read-out: Ki”, the Ki was more than 300 nM.
The same measure, in the same setting: to `CC(C)CN([C@H](CO)CCCCNC(=O)N(Cc1cccnc1)Cc1cccc(F)c1)S(=O)(=O)c1ccc(N)cc1` [Example 72, (2S) 2-N-(4-aminobenzenesulfonyl)-2-N-isobutyl-6-N-[N'-(3-fluorobenzyl)-N'-(3-picolyl)aminocarbonyl]-2,6-diaminohexanol] belongs more than 300 nM; to `Cc1ccc(S(=O)(=O)N(CC(C)C)[C@@H](CCCCNC(=O)N[C@H]2CCc3ccccc32)C(=O)O)cc1` [Example 25, (15,1'S) Nα-isobutyl-Nα-(4-methylbenzenesulfonyl)-N∈-(indanyl-1'-aminocarbonyl)-S-lysine], more than 300 nM.
With `Cc1ccc(S(=O)(=O)N(CC(C)C)[C@@H](CCCCNC(=O)NNC(=O)c2ccncc2)C(=O)O)cc1` [Example 11, Nα-isobutyl-Nα-(4-methylbenzenesulfonyl)-N∈-[N2-(pyridine-4-carbonyl)-hydrazino-N1-carbonyl]-L-lysine], the Ki (Ki) is more than 300 nM.
